The assay concerns the target T1, His6-Flag-TEV-NLRP3 (134-1036) (Homo sapiens, UniProt Q96P20).
T1 construct: fused on or other part: N-terminal His6 tag, Flag tag and TEV cleavage site
The experiment in a line: NLRP3 fluorescence polarization (FP) binding assay, competition with probe NP3-301. Particulars: competition with NP3-301 for binding to NLRP3 (134-1036), 30 nM protein. Here is the method:
This experiment uses fluorescence polarization technology to detect and evaluate the binding assay.
The fluorescent probe used in this assay is the compound NP3-301 in the Journal of Molecular Biology (2021) 433, 167309, which was synthesized with reference to this literature.
His6-Flag-TEV-NLRP3 (134-1036) protein (SEQ NO. 1) was purchased from Kaihuiruizhi Biotech (Shanghai) Co., Ltd. (ChemPartner), and was customed for expression.
Prepare 1× assay buffer: 50 mM Hepes, pH 7.4, 150 mM NaCl, 2.5 mM MgCl2, 0.005% Tween-20, 1 mM TCEP, 100 μM ATP.
First, 2.5 μL of 4× compound solution was added to a black shallow 384-well plate (Greiner, 784076), the shallow well plate was sealed, and centrifuged at 1000 rpm for 1 min; then 2× NLPR3 protein solution (final concentration of 30 nM) was added, the shallow well plate was sealed, centrifuged at 1000 rpm for 1 min, and incubated at room temperature for 60 min. Finally, 2.5 μL of 4× NP3-301 (final concentration of 0.5 nM) was added, the shallow well plate was sealed, centrifuged at 1000 rpm for 1 min, and incubated at room temperature for 30 min. Envision was used to read the fluorescence polarization values of λex=485+20 nm and kem=535+25 nm. GraphPad Prism 9.5.0 was used to analyze the data, and the IC50 value of the competition between the compound and NP3-301 for binding to His6-Flag-TEV-NLRP3 (134-1036) was fitted by four-parameter logistic. The compounds of the present disclosure have good NLRP3 binding activity, and the test results of some representative compounds are shown in Table 1.
On the technique in general: Fluorescence polarisation rises when a labelled molecule tumbles more slowly, as on binding a larger partner.

pIC50: −log10 of the molar value.

T1 sequence (Q96P20 134-1036 limits assumed): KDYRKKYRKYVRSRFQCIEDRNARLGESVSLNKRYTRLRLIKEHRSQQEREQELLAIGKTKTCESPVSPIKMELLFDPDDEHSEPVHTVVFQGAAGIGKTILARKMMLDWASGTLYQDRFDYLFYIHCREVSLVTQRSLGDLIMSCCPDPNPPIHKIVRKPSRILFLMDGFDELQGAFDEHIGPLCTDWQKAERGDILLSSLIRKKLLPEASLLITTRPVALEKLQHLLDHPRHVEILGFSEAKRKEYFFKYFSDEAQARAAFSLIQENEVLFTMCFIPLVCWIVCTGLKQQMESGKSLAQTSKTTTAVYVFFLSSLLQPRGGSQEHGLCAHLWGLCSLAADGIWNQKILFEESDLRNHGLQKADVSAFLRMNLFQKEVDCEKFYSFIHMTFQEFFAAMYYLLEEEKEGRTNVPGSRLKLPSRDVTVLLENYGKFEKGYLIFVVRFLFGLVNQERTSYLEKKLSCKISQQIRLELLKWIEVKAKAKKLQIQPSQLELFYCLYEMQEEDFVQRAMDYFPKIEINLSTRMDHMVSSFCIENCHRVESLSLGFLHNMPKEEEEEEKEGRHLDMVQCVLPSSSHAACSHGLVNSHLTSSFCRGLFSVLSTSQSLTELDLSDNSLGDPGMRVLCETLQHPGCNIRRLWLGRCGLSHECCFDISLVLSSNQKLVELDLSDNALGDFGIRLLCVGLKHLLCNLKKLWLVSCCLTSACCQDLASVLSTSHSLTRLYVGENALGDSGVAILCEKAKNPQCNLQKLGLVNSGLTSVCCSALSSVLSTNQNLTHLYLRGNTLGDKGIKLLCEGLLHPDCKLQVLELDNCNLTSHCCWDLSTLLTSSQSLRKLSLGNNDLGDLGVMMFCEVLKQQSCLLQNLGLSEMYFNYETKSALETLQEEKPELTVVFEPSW

Consider `Cc1cc(C(F)(F)F)cc(O)c1-c1ccc2oc(N3CCOC[C@@H]3C)nc2n1` [Compound 373], for which the pIC50 (commonly the negative decadic logarithm of the IC50, by convention in mol/L) is 6.30 to 7.00.
In the case of `CCN1CC2(CCN(c3nc4nc(-c5c(C)cc(C(F)(F)F)cc5O)ccc4o3)CC2)C1` [Compound 358] it was 6.30 to 7.00; in that of `Cc1cc(C(F)(F)F)cc(O)c1-c1ccc2oc(N3C[C@@H]4C[C@H]3CO4)nc2n1` [Compound 380], 6.30 to 7.00; in that of `CCN1C[C@H](Nc2nc3nc(-c4c(C)cc(C(F)(F)F)cc4O)ccc3o2)CC(F)(F)C1` [Compound 398], not below 7.00.
Molecule `Cc1cc(C(F)(F)F)cc(O)c1-c1ccc2oc(N3C[C@H]4C[C@@H]3CO4)nc2n1` [Compound 379] gave a negative-log IC50 (pIC50) of 6.30 to 7.00.
In the case of `Cc1cc(C(F)(F)F)cc(O)c1-c1ccn2nc(N[C@@H]3CCCN(CCO)C3)nc2n1` [Compound 455] it was not below 7.00.
In the case of `Cc1cc(C(F)(F)F)cc(O)c1-c1ccc2oc(N3CCC4(CC3)COC4)nc2n1` [Compound 362] it was not below 7.00; in that of `CC(=O)N1CCN(c2nc3nc(-c4c(C)cc(C(F)(F)F)cc4O)ccc3o2)CC1` [Compound 389], not below 7.00.
Under `Cc1cc(C(F)(F)F)cc(O)c1-c1ccc2oc(N3CCO[C@@H](C)C3)nc2n1` [Compound 372] stands not below 7.00.
`COc1cc(C)c(-c2ccc3oc(NC[C@@H]4COCCN4C(C)=O)nc3n2)c(O)c1` [Compound 255] showed a pIC50 of 6.00 to 6.30.
For the molecule `Cc1cc(C(F)(F)F)cc(O)c1-c1ccc2[nH]c(CC(=O)O)nc2n1` [Compound 4], the pIC50 is 6.00 to 6.30.
In the case of `Cc1cc(C(F)(F)F)cc(O)c1-c1ccc2oc(N[C@@H]3CCCN(S(C)(=O)=O)C3)nc2n1` [Compound 408] it was not below 7.00.
Under `CCS(=O)(=O)N1CCOC[C@H]1CNc1nc2nc(-c3c(C)cc(C(F)(F)F)cc3O)ccc2o1` [Compound 259] stands not below 7.00; under `Cc1cc(C(F)(F)F)cc(O)c1-c1ccc2nc(N)nn2n1` [Compound 13], 6.00 to 6.30; under `CC(=O)N1CCOC[C@H]1CNc1nc2nc(-c3c(C)cc(Cl)cc3O)cc(C)c2o1` [Compound 452], not below 7.00.
In the case of `Cc1cc(C(F)(F)F)cc(O)c1-c1ccc2oc(N[C@@H]3CCCN(C(=O)C4CC4)C3)nc2n1` [Compound 405] it was not below 7.00; in that of `Cc1cc(C(F)(F)F)cc(O)c1-c1ccc2oc(N3CCC4(CCCCO4)CC3)nc2n1` [Compound 368], not below 7.00.
`CC(=O)N1CCC2(CC1)CN(c1nc3nc(-c4c(C)cc(C(F)(F)F)cc4O)ccc3o1)CCO2` [Compound 365] had a negative logarithm of the IC50 (pIC50) of 6.30 to 7.00.
`CC(=O)N1CCC2(CCN(c3nc4nc(-c5c(C)cc(C(F)(F)F)cc5O)ccc4o3)C2)C1` (stereo not drawn) [Compound 364] showed a pIC50 not below 7.00.
In the case of `Cc1cc(C(F)(F)F)cc(O)c1-c1ccc2oc(N[C@@H]3CCCN(CC(C)(C)O)C3)nc2n1` [Compound 403] it was not below 7.00; in that of `Cc1cc(C(F)(F)F)cc(O)c1-c1ccc2oc(NC3CC3)nc2n1` [Compound 82], not below 7.00.
In the case of `CC(=O)N1CCC[C@@H](Nc2nc3nc(-c4c(C)cc(C(F)(F)F)cc4O)ncc3[nH]2)C1` [Compound 461] it was 6.30 to 7.00.
Under `Cc1cc(C)c(-c2ccc3oc(N4CCS(=O)(=O)CC4)nc3n2)c(O)c1` [Compound 385] stands 6.30 to 7.00; under `Cc1cc(C(F)(F)F)cc(O)c1-c1cc2ccn(C3CS(=O)(=O)C3)c2nn1` [Compound 125], 6.30 to 7.00.
`Cc1cc(C(F)(F)F)cc(O)c1-c1ccc2oc(N3CC4CC(C3)N4S(C)(=O)=O)nc2n1` [Compound 395] gave a negative-log IC50 (pIC50) not below 7.00.
Take `CC(=O)N1CC[C@H](Nc2nc3nc(-c4c(C)cc(C(F)(F)F)cc4O)ccc3o2)C1` [Compound 273]: the pIC50 was 6.30 to 7.00.
In turn, `CCN1CCC[C@@H](Nc2nc3ccc(-c4c(C)cc(F)cc4O)nn3n2)C1` [Compound 449] gave a pIC50 not below 7.00.
In the case of `Cc1cc(Cl)cc(O)c1-c1ccc2nc(N3CCOCC3)nn2n1` [Compound 420] it was not below 7.00; in that of `Cc1cc(C(F)(F)F)cc(O)c1-c1ccc2oc(N3CC4(COC4)C3)nc2n1` [Compound 357], 6.30 to 7.00; in that of `Cc1cc(C(F)(F)F)cc(O)c1-c1ccc2oc(N[C@@H]3CCCN(S(=O)(=O)C4CC4)C3)nc2n1` [Compound 406], not below 7.00.
In the case of `CCS(=O)(=O)N1CCN(c2nc3nc(-c4c(C)cc(C)cc4O)ccc3o2)CC1` [Compound 391] it was not below 7.00.
Under `[2H]C([2H])([2H])C(=O)N1CCOC[C@H]1CNc1nc2nc(-c3c(C)cc(C(F)(F)F)cc3O)ccc2o1` [Compound 450] stands not below 7.00; under `CC(=O)N1CCC2(CC1)CCN(c1nc3nc(-c4c(C)cc(C(F)(F)F)cc4O)ccc3o1)CC2` [Compound 366], 6.30 to 7.00; under `CC(=O)N1CC2(CCN(c3nc4nc(-c5c(C)cc(C(F)(F)F)cc5O)ccc4o3)CC2)C1` [Compound 359], not below 7.00.
In turn, `Cc1cc(C(F)(F)F)c(Cl)c(O)c1-c1ccn2nc(N3CCOCC3)nc2n1` [Compound 459] showed a negative-log IC50 (pIC50) of less than 6.00.
Under `CC(=O)N1CCOC2(CCN(c3nc4nc(-c5c(C)cc(C(F)(F)F)cc5O)ccc4o3)CC2)C1` [Compound 369] stands 6.30 to 7.00; under `CC(=O)N1CCOC[C@H]1CNc1nc2nc(-c3c(C)cc(C)cc3O)ccc2o1` [Compound 254], 6.30 to 7.00.
Under `Cc1cc(C(F)(F)F)cc(O)c1-c1ccc2oc(NC[C@@H]3COCCN3S(C)(=O)=O)nc2n1` [Compound 258] stands not below 7.00; under `Cc1cc(C(F)(F)F)cc(O)c1-c1ccc2oc(N[C@@H]3COCC[C@H]3O)nc2n1` [Compound 81], 6.30 to 7.00; under `Cc1cc(C(F)(F)F)cc(O)c1-c1cc2ccn(C3CCS(=O)(=O)C3)c2nn1` (stereo not drawn) [Compound 123], 6.00 to 6.30.
In the case of `Cc1cc(C(F)(F)F)cc(O)c1-c1ccc2oc(NC3CCN(S(C)(=O)=O)CC3)nc2n1` [Compound 411] it was 6.30 to 7.00; in that of `Cc1cc(C(F)(F)F)cc(O)c1-c1ccc2oc(N3CCCOCC3)nc2n1` [Compound 377], not below 7.00; in that of `Cc1cc(C(F)(F)F)cc(O)c1-c1ccc2oc(N[C@@H]3CCCN(C4COC4)C3)nc2n1` [Compound 401], not below 7.00.
The molecule `Cc1cc(C(F)(F)F)cc(O)c1-c1cc2ccn(Cc3cc(C#N)ccn3)c2nn1` [Compound 121] showed a negative-log IC50 (pIC50) of less than 6.00.
In the case of `CC(=O)N1CCOC[C@H]1CNc1nc2ccc(-c3c(C)cc(C(F)(F)F)cc3O)nn2n1` [Compound 419] it was 6.30 to 7.00.
With `CC(=O)N1CCOC[C@H]1CNc1nc2c(C)cc(-c3c(C)cc(C(F)(F)F)cc3O)nn2n1` [Compound 425], the pIC50 was 6.30 to 7.00.
In the case of `Cc1cc(C(F)(F)F)cc(O)c1-c1ccc2oc(N[C@@H]3CCCN(CC#N)C3)nc2n1` [Compound 402] it was not below 7.00; in that of `Cc1cc(C(F)(F)F)cc(O)c1-c1ccc2oc(C3CCCNC3)nc2n1` (stereo not drawn) [Compound 382], 6.30 to 7.00.
Under `Cc1cc(C(F)(F)F)cc(O)c1-c1ccc2[nH]c(N)nc2n1` [Compound 1] stands 6.30 to 7.00; under `Cc1cc(C(F)(F)F)cc(O)c1-c1ccc2oc(N3CC4CC(C3)O4)nc2n1` [Compound 378], 6.30 to 7.00.
Turning to `Cc1cc(C(F)(F)F)cc(O)c1-c1ccc2oc(N3CCC4(CCO4)CC3)nc2n1` [Compound 363], the pIC50 is not below 7.00.
